Assays:
Assay type in all cases: biochemical
Recombinant human HDAC2 = target: T1, Recombinant human HDAC2 (Homo sapiens, UniProt Q92769); experiment: Human HDAC enzyme inhibitor Fluor-de-Lys assay, HDAC2
T1 construct: Full length human HDAC2-FLAG was expressed in baculovirus infected Sf9 cells; FLAG (C); made in house; host or cells: Sf9 (baculovirus)
Procedure: (§1) Human HDAC Enzyme Inhibitor Fluor-De-Lys Assay
(§2) Recombinant human HDAC8 (BML-SE145-0100) and HDAC10 (BML-SE559-0050) enzymes, HDAC substrates BML-KI104 and BML-KI178, and HDAC developer solutions BML-KI105 and BML-KI176 were purchased from Enzo Life Sciences. […] HDAC inhibitor suberoylanilide hydroxamic acid (SAHA) was obtained from Indofine and trichostatin A (TSA) was obtained from Sigma-Aldrich.
(§3) Recombinant human HDAC1, HDAC2, and HDAC3/SMRT heterodimer were prepared by Merck Research Laboratories. […] The eluted protein was then passed over an anti-HDAC1 immunoaffinity column to remove any complexes containing HDAC1. […]
(§4) The histone deacetylase activities of HDAC1, HDAC2, HDAC3, HDAC6, and HDAC8 were measured in modified FLUOR DE LYS assays in 384-well format. In this assay, HDAC enzymes are initially incubated with an ε-acetyl (or -trifluoroacetyl)-L-lysine-containing substrate with a C-terminal amide having aminomethylcoumarin as the amine component. HDACs cleave the ε-acetyl group, rendering the resulting product susceptible to AMC cleavage by trypsin. The released AMC is then detected by its fluorescence.
(§5) The HDAC3/SMRT assay employed buffer B, consisting of 20 mM HEPES, pH 8.0, 1 mM MgCl2, 50 mM NaCl, 2.7 mM KCl, 0.05% BSA, 0.005% Tween 20, and 10 μM IP4. […] The HDAC8 assay employed buffer D, consisting of 20 mM HEPES, pH 8.0, 1 mM MgCl2, 100 mM NaCl, 20 mM KCl, 0.10% n-octyl-β-D-glucoside (Anatrace) and 0.05% BSA. All steps were performed at room temperature (23° C.). The assay was performed by pre-incubating serial dilutions of test compounds with the target HDAC prior to initiation with substrate. Each compound was titrated in a 10-point dose response, using a 1:3 fold dilution scheme, with 0.15 ul of solution added by ECH0555 to the plate, followed by the addition of 20 μl of the appropriate HDAC isoform diluted in appropriate assay buffer. […] Final conditions used for each assay were: 1. HDAC 1, 0.3 nM total enzyme, 20 μM substrate BML-KI104; 2. […] HDAC 3/SMRT, 0.3 nM total enzyme, 20 μM substrate BML-KI104; 4. […] The reactions were stopped and developed by addition of 30 ul of HDAC developer solution containing a saturating level of HDAC inhibitor as follows: 1.

Recombinant human HDAC8 = target: T2, Recombinant human HDAC8 (Homo sapiens, UniProt Q9BY41); experiment: Human HDAC enzyme inhibitor Fluor-de-Lys assay, HDAC8
T2 construct: purchased Enzo Life Sciences BML-SE145-0100
T2 sequence (Q9BY41 1-377): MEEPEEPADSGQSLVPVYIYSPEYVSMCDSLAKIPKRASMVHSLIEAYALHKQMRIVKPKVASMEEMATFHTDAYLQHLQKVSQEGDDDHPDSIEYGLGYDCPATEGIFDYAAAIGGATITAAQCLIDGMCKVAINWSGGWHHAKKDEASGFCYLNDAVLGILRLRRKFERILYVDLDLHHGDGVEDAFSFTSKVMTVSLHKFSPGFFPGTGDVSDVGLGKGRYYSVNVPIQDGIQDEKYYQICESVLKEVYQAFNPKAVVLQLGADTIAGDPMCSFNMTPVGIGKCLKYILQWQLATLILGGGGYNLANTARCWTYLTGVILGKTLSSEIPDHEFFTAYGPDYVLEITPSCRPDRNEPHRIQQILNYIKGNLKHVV

HDAC6 = target: T3, HDAC6 (Homo sapiens, UniProt Q9UBN7); experiment: Human HDAC enzyme inhibitor Fluor-de-Lys assay, HDAC6
T3 sequence (Q9UBN7 1-1215): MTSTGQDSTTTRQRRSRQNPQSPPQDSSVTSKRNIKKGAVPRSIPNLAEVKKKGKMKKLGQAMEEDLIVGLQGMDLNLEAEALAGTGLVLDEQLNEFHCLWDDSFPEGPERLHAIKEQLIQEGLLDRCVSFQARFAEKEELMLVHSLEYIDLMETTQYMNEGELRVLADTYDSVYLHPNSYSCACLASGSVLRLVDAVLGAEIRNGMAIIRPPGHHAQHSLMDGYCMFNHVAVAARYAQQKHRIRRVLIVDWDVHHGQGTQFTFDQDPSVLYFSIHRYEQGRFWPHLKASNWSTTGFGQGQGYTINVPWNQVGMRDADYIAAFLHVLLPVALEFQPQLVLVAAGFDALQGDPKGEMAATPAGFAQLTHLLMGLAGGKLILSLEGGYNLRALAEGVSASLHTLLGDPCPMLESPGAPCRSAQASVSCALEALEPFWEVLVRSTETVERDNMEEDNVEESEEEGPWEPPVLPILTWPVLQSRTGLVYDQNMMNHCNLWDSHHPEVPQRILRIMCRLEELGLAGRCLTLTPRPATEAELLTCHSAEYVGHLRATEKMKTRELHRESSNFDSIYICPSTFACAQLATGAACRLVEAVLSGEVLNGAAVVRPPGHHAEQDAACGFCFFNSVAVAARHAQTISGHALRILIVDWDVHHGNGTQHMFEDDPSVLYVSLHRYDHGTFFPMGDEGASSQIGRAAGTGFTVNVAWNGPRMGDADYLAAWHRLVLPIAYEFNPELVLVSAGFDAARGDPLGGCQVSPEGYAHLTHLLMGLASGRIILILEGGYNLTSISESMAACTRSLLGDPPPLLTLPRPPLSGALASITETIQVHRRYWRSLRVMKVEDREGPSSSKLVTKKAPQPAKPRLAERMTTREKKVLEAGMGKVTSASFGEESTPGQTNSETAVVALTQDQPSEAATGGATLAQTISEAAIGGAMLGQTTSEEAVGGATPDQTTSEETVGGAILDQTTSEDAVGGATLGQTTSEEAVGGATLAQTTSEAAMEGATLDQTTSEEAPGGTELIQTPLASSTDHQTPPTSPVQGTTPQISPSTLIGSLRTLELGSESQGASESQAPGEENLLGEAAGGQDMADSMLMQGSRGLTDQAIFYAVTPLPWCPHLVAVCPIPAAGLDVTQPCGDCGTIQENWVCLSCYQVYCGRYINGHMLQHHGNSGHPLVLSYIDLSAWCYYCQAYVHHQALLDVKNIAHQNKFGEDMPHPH

Recombinant human HDAC1 = target: T4, Recombinant human HDAC1 (Homo sapiens, UniProt Q13547); experiment: Human HDAC enzyme inhibitor Fluor-de-Lys assay, HDAC1
T4 construct: FLAG (C); made in house
Procedure: as §1, §2, §3, §4, §5

T4 sequence (Q13547 whole entry): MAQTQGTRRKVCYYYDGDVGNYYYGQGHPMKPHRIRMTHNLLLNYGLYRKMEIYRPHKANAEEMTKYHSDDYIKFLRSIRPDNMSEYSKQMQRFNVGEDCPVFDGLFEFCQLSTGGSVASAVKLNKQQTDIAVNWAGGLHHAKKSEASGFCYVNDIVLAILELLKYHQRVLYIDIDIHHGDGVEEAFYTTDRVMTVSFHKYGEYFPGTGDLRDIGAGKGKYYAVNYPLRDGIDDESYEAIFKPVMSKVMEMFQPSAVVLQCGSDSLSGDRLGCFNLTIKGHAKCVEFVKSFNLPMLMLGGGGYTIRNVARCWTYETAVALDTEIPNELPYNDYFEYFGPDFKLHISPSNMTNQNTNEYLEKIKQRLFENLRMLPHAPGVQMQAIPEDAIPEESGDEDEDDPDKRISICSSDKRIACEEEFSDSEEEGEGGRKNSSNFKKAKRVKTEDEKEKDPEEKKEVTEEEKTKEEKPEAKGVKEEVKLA
T1 sequence (Q92769 whole entry): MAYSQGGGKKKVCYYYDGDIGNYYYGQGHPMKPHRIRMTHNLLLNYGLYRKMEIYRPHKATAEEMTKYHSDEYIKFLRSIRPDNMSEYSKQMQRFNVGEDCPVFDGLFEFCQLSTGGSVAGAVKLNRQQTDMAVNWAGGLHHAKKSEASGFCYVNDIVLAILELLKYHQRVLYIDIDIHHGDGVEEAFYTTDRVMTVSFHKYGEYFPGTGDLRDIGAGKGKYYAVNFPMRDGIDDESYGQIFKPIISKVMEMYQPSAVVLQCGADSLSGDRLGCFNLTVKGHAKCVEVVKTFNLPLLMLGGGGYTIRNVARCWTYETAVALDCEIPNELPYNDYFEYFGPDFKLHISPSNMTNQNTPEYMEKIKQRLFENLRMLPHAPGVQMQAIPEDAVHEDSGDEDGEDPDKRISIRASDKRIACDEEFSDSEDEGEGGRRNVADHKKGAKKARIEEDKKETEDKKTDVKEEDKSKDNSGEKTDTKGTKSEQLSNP

Compound	IC50 (Recombinant human HDAC2) [µM]	IC50 (Recombinant human HDAC8) [µM]	IC50 (HDAC6) [µM]	IC50 (Recombinant human HDAC1) [µM]
CCC(=O)CCCCC[C@H](NC(=O)[C@H]1CC12CCN(CC)CC2)c1nc(-c2cc3ccc(C)nc3cc2OC)cn1COC(=O)C(C)(C)C [Compound 215, {2-[(1S)-1-({[(1S)-6-ethyl-6-azaspiro[2.5]oct-1-yl]carbonyl}amino)-7-oxononyl]-4-(7-methoxy-2-methylquinolin-6-yl)-1H-imidazol-1-yl}methyl 2,2-dimethylpropanoate]	0.004	> 0.9	> 0.9	0.00089
CCC(=O)CCCCC[C@H](NC(=O)C1(C)CC12CCN(C(C)C)CC2)c1ncc(-c2ccc3nc(C)ccc3c2)[nH]1 (single isomer, unassigned) [Compound 152, (1S or 1R)-1-methyl-6-(1-methylethyl)-N-{(1S)-1-[5-(2-methylquinolin-6-yl)-1H-imidazol-2-yl]-7-oxononyl}-6-azaspiro[2.5]octane-1-carboxamide]	0.004	5.06	19.2	0.00094
CCC(=O)CCCCC[C@H](NC(=O)[C@H]1CC12CCN(C)CC2)c1ncc(-c2cc(OC)ncc2F)o1 [Compound 220]	0.251	> 0.9	> 0.9	0.0299
C=CCN1CCC2(CC1)C[C@@H]2C(=O)N[C@@H](CCCCCC(=O)CC)c1ncc(-c2ccc3c(c2)C2CCC3N2CC=C)[nH]1 (stereo partly drawn) [Compound 179, (1S)—N-{(1S)-7-oxo-1-[5-(9-prop-2-en-1-yl-1,2,3,4-tetrahydro-1,4-epiminonaphthalen-6-yl)-1H-imidazol-2-yl]nonyl}-6-prop-2-en-1-yl-6-azaspiro[2.5]octane-1-carboxamide]	0.38	8.66	9.53	0.0583
CCC(=O)CCCCC[C@H](NC(=O)CN1CCC2(CC1)CC2)c1ncc(-c2ccc3nn(C)cc3c2)[nH]1 [Compound 155]	0.0184	8.13	8.94	0.00691
CCN1CCC2(CC1)C[C@@H]2C(=O)N[C@@H](CCCCCC(=O)CC1CCC1)c1ncc(-c2cc3ccc(C)nc3cc2OC)o1 [Compound 184]	0.0388	> 45	9.28	0.00951
CCC(=O)CCCCC[C@H](NC(=O)[C@H]1CC12CCN(CC)CC2)c1ncc(-c2ccc(-c3cnc(C4CC4)nc3)cc2)o1 [Compound 161]	0.163	26.8	11.7	0.0545
CCC(=O)CCCCC[C@H](NC(=O)[C@H]1CC12CCN(C)CC2)c1ncc(-c2ccc3oc(=O)ccc3c2)[nH]1 [Compound 138]	0.0079	10.1	1.47	0.00132
CCC(=O)CCCCC[C@H](NC(=O)[C@H]1CC12CCN(C)CC2)c1ncc(-c2cc3ccc(=O)n(C)c3cc2OC)o1 [Compound 198]	0.0038	> 0.9	0.426	0.00087
CCC(=O)CCCCC[C@H](NC(=O)C1CC12CCN(C)C(C)(C)C2)c1ncc(-c2ccc3nc(C)ccc3c2)[nH]1 (single isomer, unassigned) [Compound 132]	0.0065	8.06	3.68	0.00233
CCC(=O)CCCCC[C@H](NC(=O)[C@H]1CC12CCN(C)CC2)c1nc(F)c(-c2cc3ccccc3nc2OC)[nH]1 [Compound 75]	0.101	27.3	> 45	0.0293
CCC(=O)CCCCC[C@H](NC(=O)[C@H]1CC12CCN(C)CC2)c1nnc(-c2cc3ccc(C)nc3cc2OC)o1 [Compound 191]	0.0053	43.2	2.05	0.00216
CCC(=O)CCCCC[C@H](NC(=O)[C@H]1CC12CCN(CC)CC2)c1ncc(-c2ccc3c(=O)n(CC)ccc3c2)o1 [Compound 162]	0.0095	> 45	6.53	0.00324
CCC(=O)CCCCC[C@H](NC(=O)[C@H]1CC12CCN(CC)CC2)c1ncc(-c2cc3nn(C)cc3cc2OC)o1 [Compound 189]	0.03	27.5	0.159	0.00733
CCC(=O)CCCCC[C@H](NC(=O)[C@H]1CC12CCN(CC)CC2)c1ncc(-c2ccc3nc(C4CC4)ccc3c2)[nH]1 [Compound 101]	< 0.0015	6.65	7.37	< 0.0015
CCC(=O)CCCCC[C@H](NC(=O)[C@H]1CC12CCN(CC)CC2)c1ncc(-c2ccc3c(cnn3C3CC3)c2)[nH]1 [Compound 159]	0.0024	4.62	2.95	0.00044
CCC(=O)CCCCC[C@H](NCCN(C)C)c1ncc(-c2cc3ccc(C)nc3cc2OC)[nH]1 [Compound 217, (9S)-9-{[2-(dimethylamino)ethyl]amino}-9-[5-(7-methoxy-2-methylquinolin-6-yl)-1H-imidazol-2-yl]nonan-3-one]	0.0503	> 0.9	> 0.9	0.00456
CCC(=O)CCCCC[C@H](NC(=O)C1=NOC2(CCN(C)CC2)C1)c1ncc(-c2ccc3nn(C)cc3c2)[nH]1 [Compound 154]	0.0195	12.1	18.1	0.00603
CCC(=O)CCCCC[C@H](NC(=O)[C@H]1CC12CCN(CC)CC2)c1ncc(-c2ccc3c(=O)n(C4CC4)ccc3c2)[nH]1 [Compound 150]	0.0014	4.37	7.05	0.00019
